Measurements from publication PMC5755735, “Discovery of indolylpiperazinylpyrimidines with dual-target profiles at adenosine A2A and dopamine D2 receptors for Parkinson's disease treatment” (PLoS ONE, 2018).

Tests used:
[1] = test system: Salmonella strains TA98 and TA100; test: Ames mutagenicity test; format: cell-based, Salmonella typhimurium; settings: 10 μM and 100 μM; TA98 and TA100, +S9 and –S9
Procedure: In the toxicity studies, in vitro assays for mutagenicity and cytotoxicity were performed on compounds 5 and 6. These compounds were investigated for their mutagenic potential through the Ames assay. Two Salmonella strains TA98 and TA100 with pre-existing mutations (His^-) were selected. Both strains are unable to synthesize histidine (one of the growth requirements for these strains) and therefore cannot form colonies on the agar plate.
Together with the compounds, the Salmonella strains were incubated in the presence (+S9) and absence (–S9) of a metabolizing system “S9 mix” consisting of 9000 g supernatant fraction of rat liver microsomes, nicotinamide adenine dinucleotide phosphate (NADP) and cofactors. Exogenous “S9 mix” was included due to the lack of CYP metabolizing enzymes in Salmonella typhimurium. In the assay, agar plates +S9 and–S9 were used to detect pro-mutagens for cases where the native chemical was not mutagenic but its metabolites were mutagens, and direct-acting mutagens, respectively. […]
In vitro mutagenicity was performed using a modified Ames Test protocol according to manufacturer’s instructions (MolTox). […] The cultures were then measured for absorbance with a UV spectrophotometer at 660 nm and to be used at a density of approximately 1.0 to 1.2 absorbance units. […] Images of colonies were captured and counted with the aid of ImageJ software.

[2] = biological target: human dopamine D2 receptor (Homo sapiens, UniProt P14416); test: adenylyl cyclase inhibition (cAMP accumulation) assay in CHO cells transfected with D2 receptor; format: cell-based; parameters: expressed in transfected cells; host or cells: CHO cells
Chain of human dopamine D2 receptor (P14416 whole entry): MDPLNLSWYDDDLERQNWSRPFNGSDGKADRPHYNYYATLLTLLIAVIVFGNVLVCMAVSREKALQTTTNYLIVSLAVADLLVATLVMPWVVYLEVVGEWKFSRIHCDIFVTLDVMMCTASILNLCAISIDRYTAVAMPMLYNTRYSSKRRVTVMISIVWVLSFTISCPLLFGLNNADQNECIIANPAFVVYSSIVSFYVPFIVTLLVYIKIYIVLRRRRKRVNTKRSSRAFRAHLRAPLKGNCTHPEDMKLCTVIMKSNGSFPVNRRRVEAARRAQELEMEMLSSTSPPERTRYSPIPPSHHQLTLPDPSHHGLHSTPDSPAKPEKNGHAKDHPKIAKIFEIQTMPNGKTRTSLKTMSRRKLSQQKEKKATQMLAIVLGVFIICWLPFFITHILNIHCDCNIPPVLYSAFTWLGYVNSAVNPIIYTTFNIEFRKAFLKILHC
Procedure: CHO cells transfected with D2 receptors were cultured and then serum starved overnight. Cells were treated with various concentrations of ligands (25 μL of 10X solution), stimulated with forskolin (0.5 μM) and 3-isobutyl-1-methylxanthine (IBMX) (0.5 mM), and incubated for 15 minutes. After lysis, cAMP content was determined by ELISA.

[3] = biological target: T1, human A2B receptors expressed in CHO cells (Homo sapiens, UniProt P29275); test: inhibition of NECA-stimulated adenylyl cyclase activity at hA2B
T1 sequence (P29275 1-332): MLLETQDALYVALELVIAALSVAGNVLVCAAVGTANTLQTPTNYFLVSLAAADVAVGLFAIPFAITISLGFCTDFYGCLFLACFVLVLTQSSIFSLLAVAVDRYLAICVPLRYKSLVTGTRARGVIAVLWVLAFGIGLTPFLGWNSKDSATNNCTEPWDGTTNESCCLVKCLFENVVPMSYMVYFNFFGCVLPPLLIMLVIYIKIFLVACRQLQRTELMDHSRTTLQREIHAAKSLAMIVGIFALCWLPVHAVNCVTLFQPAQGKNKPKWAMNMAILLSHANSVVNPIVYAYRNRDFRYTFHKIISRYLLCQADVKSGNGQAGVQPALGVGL
Procedure: For measurement of adenylyl cyclase activity in the hA2B receptors, one-step centrifugation procedure was used; the homogenate was sedimented for 30 min at 54,000 g. The so-obtained crude membrane pellet was re-suspended in 50 mM Tris/HCl, pH 7.4 and used for the adenylyl cyclase assay immediately.
The membranes were incubated with about 150,000 cpm of [α-^32P]adenosine triphosphate ([α-^32P]ATP) and test compounds in different concentrations for 20 min. A non-linear regression analysis was applied to calculate the IC50 of the adenylyl cyclase activity assay. From the IC50 values, Ki values were then calculated using the Cheng and Prusoff equation [46].

parkin-null flies = test: parkin-null Drosophila model of PD (climbing assay, DA neuron count); format: in vivo; settings: 50 μM
Excerpt: (§1) Parkin-null (pk-/-) flies were first used to evaluate compound 5. […] (Fig 8B), the cluster used widely in the parkin-null flies. Compound 5 was subsequently examined for its ability to ameliorate LRRK2 G2019S-induced PD phenotypes. […] Taken together, these findings indicate that compound 5 acts as a suppressor of DA neuron dysfunction in two Drosophila genetic PD models—one with parkin-null which represents recessive PD, and one with transgene LRRK2 G2019S-mutant, which represents dominant PD.
(§2) Fly lines for 24B-Gal4 (muscle specific), ddc-Gal4 (dopaminergic neuron-specific), elav-Gal4 (pan-neuronal), UAS-mito-GFP, and UAS-dAMPK-KA were purchased from Bloomington Drosophila Stock Center. The parkin-null mutant flies were kind gifts from Chung J. and Cho K. S. (Korea Advanced Institute of Science and Technology, Daejeon, Korea). […] After a 2-hour recovery period from CO2 exposure, flies were gently tapped to the bottom of the column, and the number of flies that reached the top of column at 1 min was counted. […] DA neurons were quantified according to previously published method. The size of mito-GFP puncta was measured using the ImageJ program and expressed as mean ± SD (n ≥ 10 DA neurons per experimental group). Statistical significance for all the quantitative data obtained were analyzed using one-way ANOVA with Tukey’s test HSD post hoc test (*p < 0.05, **p < 0.01).

[4] = test system: LRRK2 G2019S-expressing flies; test: LRRK2 G2019S Drosophila model of PD (climbing assay, DA neuron count); format: in vivo
Excerpt: as §1, §2

| SMILES | mutagenicity (number of His+ revertants) [1] | functional activity at D2 receptor (cAMP accumulation induced by forskolin/IBMX) ([2]; 1 μM, 10 μM and 100 μM) | inhibition of cAMP accumulation (optimal inhibition) ([2]; 100 μM, p = 0.0232) | Ki [3] [µM] | DA neuronal count (PPL1 cluster) (parkin-null flies) | climbing score (parkin-null flies; compared with untreated mutant flies) | climbing score ([4]; 50 μM and 100 μM) | DA neuronal count ([4]; LRRK2 G2019S-expressing flies) |
| --- | --- | --- | --- | --- | --- | --- | --- | --- |
| Cc1cc(C)nc(N2CCN(C(=O)Cc3c(C)[nH]c4ccccc34)CC2)n1 [Compound 6, 1‐[4‐(4,6‐Dimethylpyrimidin‐2‐yl)piperazin‐1‐yl]‐2‐(2‐methyl‐1H‐indol‐3‐yl)ethan‐1‐one] | no significant mutagenicity | acted as a D2 receptor agonist | comparable potency to 100 nM of quinpirole | > 20 |  |  |  |  |
| Cc1cc(C)nc(N2CCN(C(=O)c3c[nH]c4ccccc34)CC2)n1 [Compound 5, 3‐[4‐(4,6‐Dimethylpyrimidin‐2‐yl)piperazine‐1‐carbonyl]‐1H‐indole] | no significant mutagenicity |  |  |  | reduction of DA neuron loss in the PPL1 cluster | improvement in climbing scores | improvement in climbing (in a concentration-dependent manner) | mitigation of DA neuron degeneration |
